Tests used:
[1] = tested on: primary human fibroblasts derived from IPF patients (LL29 cells); experiment: Inhibition of fibrotic process: αSMA staining in TGF-β1 treated LL29 fibroblasts; format: cell-based; settings: Fibroblast; for EC50: 96 h, TGF-β1 20 ng/mL, 4 days, % cells positive for αSMA; for inhibition at 10 µM: given for EC50 >10 μM, TGF-β1, αSMA, read-out: percent inhibition at 10 μM
Excerpt: Representative compounds were screened using primary human fibroblasts (derived from IPF patients) treated with TGF-β1 to determine their ability to inhibit the fibrotic process.
Human Fibroblast Cell Culture: Primary human fibroblasts derived from IPF patients (LL29 cells) [^1Xiaoqiu Liu, et. al., “Fibrotic Lung Fibroblasts Show Blunted Inhibition by cAMP Due to Deficient cAMP Response Element-Binding Protein Phosphorylation”, Journal of Pharmacology and Experimental Therapeutics (2005), 315(2), 678-687; ^2Watts, K. L., et. al., “RhoA signaling modulates cyclin D1 expression in human lung fibroblasts; implications for idiopathic pulmonary fibrosis”, Respiratory Research (2006), 7(1), 88] were obtained from American Type Culture Collection (ATCC) and expanded in F12 medium supplemented with 15% Fetal Bovine Serum and Penicillin/Streptomycin.
Compound Screening: Each compound was dissolved in DMSO as a 10 mM stock and used to prepare compound source plates. Serial dilution (1:2, 11-point dose-response curves from […]) and compound transfer was performed using the ECHO 550 (Labcyte, Sunnyvale, Calif.) into 384-well clear bottom assay plates (Greiner Bio-One) with appropriate DMSO backfill for a final DMSO concentration of 0.1%. LL29 cells are plated at 1,500 cells/well in 80 μL/well F12 medium supplemented with 1% Fetal Bovine Serum. One hour after addition of the cells, TGF-β1 (Peprotech; 20 ng/mL) was added to the plates to induce fibrosis (ref. 1 and 2 above). Wells treated with TGF-β1 and containing DMSO were used as controls. Cells were incubated at 37° C. and 5% CO2 for 4 days. Following incubation for 4 days, SYTOX green nucleic acid stain (Life Technologies [Thermo Fisher Scientific]) was added to the wells at a final concentration of 1 μM and incubated at room temperature for 30 min. Cells were then fixed using 4% formaldehyde (Electron Microscopy Sciences), washed 3 times with PBS followed by blocking and permeabilization using 3% Bovine Serum Albumin (BSA; Sigma) and 0.3% Triton X-100 (Sigma) in PBS. Cells were then stained with antibody specific to α-smooth muscle actin (αSMA; Abcam) (ref. 1 and 2 above) in 3% Bovine Serum Albumin (BSA; Sigma) and 0.3% Triton X-100 (Sigma) in PBS, and incubated overnight at 4° C. Cells were then washed 3 times with PBS, followed by incubation with Alexa Flor-647 conjugated secondary antibody (Life Technologies [Thermo Fisher Scientific]) and DAPI at room temperature for 1 hour. Cells were then washed 3 times with PBS and plates were sealed for imaging. αSMA staining was imaged by excitation at 630 nm and emission at 665 nm and quantified using the Compartmental Analysis program on the CellInsight CX5 (Thermo Scientific). Dead or apoptotic cells were excluded from analysis based on positive SYTOX green staining. % of total cells positive for αSMA were counted in each well and normalized to the average of 11 wells treated with TGF-β1 on the same plate using Dotmatics' Studies Software. The normalized averages (fold change over untreated) of 3 replicate wells for each compound concentration were used to create dose-responses curves and EC50 values were calculated using non-linear regression curve fit in the Dotmatics' Studies Software. For EC50 of >10 μM, the percent inhibition at 10 μM is provided.

[2] = tested on: Wnt activity (Sp5-Luc reporter, SW480 colon carcinoma cells); experiment: Sp5-Luc reporter gene screening assay for Wnt activity in SW480 cells; format: cell-based; settings: Homo sapiens; for EC50: luminescence, overnight incubation; for inhibition at 10 µM: given for EC50 >10 μM, read-out: percent inhibition at 10 μM
Excerpt: The screening assay for Wnt activity is described as follows. Reporter cell lines can be generated by stably transducing cancer cell lines (e.g., colon cancer) or primary cells (e.g., IEC-6 intestinal cells) with a lentiviral construct that includes a Wnt-responsive promoter driving expression of the firefly luciferase gene.
SW480 colon carcinoma cells were transduced with a lentiviral vector expressing luciferase with a human Sp5 promoter consisting of a sequence of eight TCF/LEF binding sites. SW480 cells stably expressing the Sp5-Luc reporter gene and a hygromycin resistance gene were selected by treatment with 150 μg/mL of hygromycin for 7 days. These stably transduced SW480 cells were expanded in cell culture and used for all further screening activities. Each compound was dissolved in DMSO as a 10 mM stock and used to prepare compound source plates. Serial dilution (1:3, 10-point dose-response curves starting from 10 μM) and compound transfer was performed using the ECHO 550 (Labcyte, Sunnyvale, Calif.) into 384-well white solid bottom assay plates (Greiner Bio-One) with appropriate DMSO backfill for a final DMSO concentration of 0.1%. For Sp5-Luc reporter gene assays, the cells were plated at 4,000 cells/well in 384-well plates with medium containing 1% fetal bovine serum and incubated overnight at 37° C. and 5% CO2. Following incubation, 20 μl of BrightGlo luminescence reagent (Promega) was added to each well of the 384-well assay plates. The plates were placed on an orbital shaker for 2 min and then luminescence was quantified using the Envision (Perkin Elmer) plate reader. Readings were normalized to DMSO only treated cells, and normalized activities were utilized for EC50 calculations using the dose-response log (inhibitor) vs. response-variable slope (four parameters) nonlinear regression feature available in GraphPad Prism 5.0 (or Dotmatics). For EC50 of >10 μM, the percent inhibition at 10 μM is provided.

With `Fc1cccc(-c2nccc3[nH]c(-c4n[nH]c5ccc(-c6cccnc6)nc45)cc23)c1` [Compound 4, 3-(4-(3-Fluorophenyl)-1H-pyrrolo[3,2-c]pyridin-2-yl)-5-(pyridin-3-yl)-1H-pyrazolo[4,3-b]pyridine] the EC50 [1] was 427 nM and the EC50 [2] was 1490 nM.
In the case of `CN(C)c1cncc(-c2ccc3[nH]nc(-c4cc5c(-c6cccc(F)c6)nccc5[nH]4)c3n2)c1` [Compound 7, 5-(3-(4-(3-Fluorophenyl)-1H-pyrrolo[3,2-c]pyridin-2-yl)-1H-pyrazolo[4,3-b]pyridin-5-yl)-N,N-dimethylpyridin-3-amine], the EC50 [1] is reported as greater than 10000 nM, the inhibition at 10 µM [1] is reported as 0% and the EC50 [2] is reported as 746 nM.
For `Fc1cccc(-c2nccc3[nH]c(-c4n[nH]c5ccc(-c6cncc(CN7CCCCC7)c6)nc45)cc23)c1` [Compound 15, 3-(4-(3-Fluorophenyl)-1H-pyrrolo[3,2-c]pyridin-2-yl)-5-(5-(piperidin-1-ylmethyl)pyridin-3-yl)-1H-pyrazolo[4,3-b]pyridine], the EC50 [1] was 554 nM and the EC50 [2] was 3750 nM.
`O=C(Nc1cncc(-c2ccc3[nH]nc(-c4cc5c(-c6cccc(F)c6)nccc5[nH]4)c3n2)c1)C1CCCCC1` [Compound 23, N-(5-(3-(4-(3-Fluorophenyl)-1H-pyrrolo[3,2-c]pyridin-2-yl)-1H-pyrazolo [4,3-b]pyridin-5-yl)pyridin-3-yl)cyclohexanecarboxamide] showed an EC50 [1] of 463 nM and an EC50 [2] of 1280 nM.
In the case of `Cc1ccncc1-c1ccc2[nH]nc(-c3cc4c(-c5ccc(F)cc5)nccc4[nH]3)c2n1` [Compound 33, 3-(4-(4-Fluorophenyl)-1H-pyrrolo[3,2-c]pyridin-2-yl)-5-(4-methylpyridin-3-yl)-1H-pyrazolo[4,3-b]pyridine], the EC50 [1] is reported as 3300 nM, the inhibition at 10 µM [2] is reported as 37.3% and the EC50 [2] is reported as greater than 10000 nM.
In the case of `O=C(Nc1cncc(-c2ccc3[nH]nc(-c4cc5c(-c6ccc(F)cc6)nccc5[nH]4)c3n2)c1)c1ccccc1` [Compound 39, N-(5-(3-(4-(4-Fluorophenyl)-1H-pyrrolo[3,2-c]pyridin-2-yl)-1H-pyrazolo [4,3-b]pyridin-5-yl)pyridin-3-yl)benzamide], the EC50 [1] is reported as 302 nM and the EC50 [2] is reported as 692 nM.
`Fc1ccc(-c2nccc3[nH]c(-c4n[nH]c5ccc(-c6cncc(CN7CCC(F)(F)C7)c6)nc45)cc23)cc1` [Compound 54, 5-(5-((3,3-Difluoropyrrolidin-1-yl)methyl)pyridin-3-yl)-3-(4-(4-fluorophenyl)-1H-pyrrolo[3,2-c]pyridin-2-yl)-1H-pyrazolo[4,3-b]pyridine] was tested, and the EC50 [1] was 521 nM and the EC50 [2] was 599 nM.
For `CC(C)CC(=O)Nc1cncc(-c2ccc3[nH]nc(-c4cc5c(-c6ccccc6F)nccc5[nH]4)c3n2)c1` [Compound 58, N-(5-(3-(4-(2-Fluorophenyl)-1H-pyrrolo[3,2-c]pyridin-2-yl)-1H-pyrazolo [4,3-b]pyridin-5-yl)pyridin-3-yl)-3-methylbutanamide], the EC50 [1] was 370 nM and the EC50 [2] was 649 nM.
In the case of `CN(C)Cc1cncc(-c2ccc3[nH]nc(-c4cc5c(-c6ccccc6F)nccc5[nH]4)c3n2)c1` [Compound 69, 1-(5-(3-(4-(2-Fluorophenyl)-1H-pyrrolo[3,2-c]pyridin-2-yl)-1H-pyrazolo [4,3-b]pyridin-5-yl)pyridin-3-yl)-N,N-dimethylmethanamine], the EC50 [1] is reported as 626 nM and the EC50 [2] is reported as 1210 nM.
`O=C(Nc1cncc(-c2ccc3[nH]nc(-c4cc5c(-c6ccccc6F)nccc5[nH]4)c3n2)c1)C1CC1` [Compound 76, N-(5-(3-(4-(2-Fluorophenyl)-1H-pyrrolo[3,2-c]pyridin-2-yl)-1H-pyrazolo [4,3-b]pyridin-5-yl)pyridin-3-yl)cyclopropanecarboxamide] showed an EC50 [1] of 3520 nM and an EC50 [2] of 687 nM.
With `Fc1ccccc1-c1nccc2[nH]c(-c3n[nH]c4ccc(-c5cncc(CNCc6ccccc6)c5)nc34)cc12` [Compound 80, N-Benzyl-1-(5-(3-(4-(2-fluorophenyl)-1H-pyrrolo[3,2-c]pyridin-2-yl)-1H-pyrazolo[4,3-b]pyridin-5-yl)pyridin-3-yl)methanamine] the EC50 [1] was 1670 nM and the EC50 [2] was 3790 nM.
With `Fc1ccccc1-c1nccc2[nH]c(-c3n[nH]c4ccc(-c5cncnc5)nc34)cc12` [Compound 83, 3-(4-(2-Fluorophenyl)-1H-pyrrolo[3,2-c]pyridin-2-yl)-5-(pyrimidin-5-yl)-1H-pyrazolo[4,3-b]pyridine] the EC50 [1] was greater than 10000 nM, the inhibition at 10 µM [1] was 0% and the inhibition at 10 µM [2] was 2.1%. The EC50 [2] was greater than 10000 nM.
`Nc1cncc(-c2ccc3[nH]nc(-c4cc5c(-c6ccncc6)nccc5[nH]4)c3n2)c1` [Compound 115, 5-(3-(4-(Pyridin-4-yl)-1H-pyrrolo[3,2-c]pyridin-2-yl)-1H-pyrazolo[4,3-b]pyridin-5-yl)pyridin-3-amine] showed an EC50 [1] of 436 nM and an EC50 [2] of 452 nM.
`c1cncc(-c2ccc3[nH]nc(-c4cc5c(N6CCCCC6)nccc5[nH]4)c3n2)c1` [Compound 172, 3-(4-(Piperidin-1-yl)-1H-pyrrolo[3,2-c]pyridin-2-yl)-5-(pyridin-3-yl)-1H-pyrazolo[4,3-b]pyridine] gave an EC50 [1] of 89 nM and an EC50 [2] of 411 nM.
`CN(C)Cc1cncc(-c2ccc3[nH]nc(-c4cc5c(N6CCCCC6)nccc5[nH]4)c3n2)c1` [Compound 181, N,N-Dimethyl-1-(5-(3-(4-(piperidin-1l-yl)-1H-pyrrolo[3,2-c]pyridin-2-yl)-1H-pyrazolo[4,3-b]pyridin-5-yl)pyridin-3-yl)methanamine] showed an EC50 [1] of 1590 nM and an EC50 [2] of 4160 nM.
In the case of `CCCCC(=O)Nc1cncc(-c2ccc3[nH]nc(-c4cc5c(N6CCCCC6)nccc5[nH]4)c3n2)c1` [Compound 187, N-(5-(3-(4-(Piperidin-1-yl)-1H-pyrrolo[3,2-c]pyridin-2-yl)-1H-pyrazolo[4,3-b]pyridin-5-yl)pyridin-3-yl)pentanamide], the EC50 [1] is reported as 2220 nM, the inhibition at 10 µM [2] is reported as 42.2% and the EC50 [2] is reported as greater than 10000 nM.
`FC1(F)CCN(Cc2cncc(-c3ccc4[nH]nc(-c5cc6c(N7CCCCC7)nccc6[nH]5)c4n3)c2)C1` [Compound 194, 5-(5-((3,3-Difluoropyrrolidin-1-yl)methyl)pyridin-3-yl)-3-(4-(piperidin-1-yl)-1H-pyrrolo[3,2-c]pyridin-2-yl)-1H-pyrazolo[4,3-b]pyridine] was tested, and the EC50 [1] was 1030 nM and the EC50 [2] was 3600 nM.
For `c1ccc(-c2ccc3[nH]nc(-c4cc5c(N6CCCCC6)nccc5[nH]4)c3n2)nc1` [Compound 196, 3-(4-(Piperidin-1-yl)-1H-pyrrolo[3,2-c]pyridin-2-yl)-5-(pyridin-2-yl)-1H-pyrazolo[4,3-b]pyridine], the EC50 [1] was 270 nM and the EC50 [2] was 3380 nM.
